ChEMBL document CHEMBL2151022, “Combatting Drug-Resistant Bacteria with Gyrase and Topoisomerase IV Inhibitors: Patent Highlight” (ACS Med Chem Lett, 2012)

Target: DNA gyrase subunit B (Staphylococcus aureus, UniProt P0A0K8)
Assay: Inhibition of Staphylococcus aureus DNA gyrase Gyr B subunit by ATPase assay

Chain of DNA gyrase subunit B (P0A0K8 whole entry): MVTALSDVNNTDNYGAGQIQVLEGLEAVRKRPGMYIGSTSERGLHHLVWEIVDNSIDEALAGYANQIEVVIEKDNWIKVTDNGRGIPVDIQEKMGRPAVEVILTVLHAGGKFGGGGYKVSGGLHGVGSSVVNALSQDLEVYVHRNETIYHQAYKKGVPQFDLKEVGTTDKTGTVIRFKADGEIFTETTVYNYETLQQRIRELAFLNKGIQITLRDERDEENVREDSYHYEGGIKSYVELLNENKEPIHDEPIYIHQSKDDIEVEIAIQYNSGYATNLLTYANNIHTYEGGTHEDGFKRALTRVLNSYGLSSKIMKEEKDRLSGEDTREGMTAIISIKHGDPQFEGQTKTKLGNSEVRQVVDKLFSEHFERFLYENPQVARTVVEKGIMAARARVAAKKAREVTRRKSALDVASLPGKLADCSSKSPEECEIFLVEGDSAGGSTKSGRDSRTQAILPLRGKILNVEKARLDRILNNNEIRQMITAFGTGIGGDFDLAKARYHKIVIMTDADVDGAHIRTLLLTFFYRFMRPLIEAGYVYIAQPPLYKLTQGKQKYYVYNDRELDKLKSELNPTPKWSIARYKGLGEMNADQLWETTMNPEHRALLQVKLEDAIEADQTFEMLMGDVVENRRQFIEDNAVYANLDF

For CCNC(=O)Nc1nc2cc(-c3cnc(C(C)(C)OP(=O)(O)O)nc3)c(F)c([C@H]3CCCO3)c2[nH]1, which Ki is on record?
The Ki was < 9 nM.
